Assays:
Carbonic anhydrase = target: T1, Carbonic anhydrase (Dicentrarchus labrax, UniProt Q2PCB5); test: Inhibition of Dicentrarchus labrax CA using 4-nitrophenylacetate substrate by esterase assay
T1 sequence (Q2PCB5 whole entry): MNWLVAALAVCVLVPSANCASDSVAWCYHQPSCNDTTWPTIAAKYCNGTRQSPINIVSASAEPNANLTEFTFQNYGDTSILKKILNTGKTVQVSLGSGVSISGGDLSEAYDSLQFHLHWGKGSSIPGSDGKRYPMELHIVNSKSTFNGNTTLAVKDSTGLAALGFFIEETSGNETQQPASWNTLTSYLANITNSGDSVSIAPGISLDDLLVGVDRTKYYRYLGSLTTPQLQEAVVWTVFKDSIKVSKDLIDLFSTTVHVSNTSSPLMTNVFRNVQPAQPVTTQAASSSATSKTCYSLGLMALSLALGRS

Carbonic anhydrase 6 = Carbonic anhydrase 6 (Homo sapiens, UniProt P23280); test: Inhibition of human CA6 using 4-nitrophenylacetate substrate by esterase assay
Carbonic anhydrase 1 = Carbonic anhydrase 1 (Homo sapiens, UniProt P00915); test: Inhibition of human CA1 using 4-nitrophenylacetate substrate by esterase assay
Carbonic anhydrase 2 = Carbonic anhydrase 2 (Homo sapiens, UniProt P00918); test: Inhibition of human CA2 using 4-nitrophenylacetate substrate by esterase assay

Sequence of Carbonic anhydrase 6 (P23280 whole entry): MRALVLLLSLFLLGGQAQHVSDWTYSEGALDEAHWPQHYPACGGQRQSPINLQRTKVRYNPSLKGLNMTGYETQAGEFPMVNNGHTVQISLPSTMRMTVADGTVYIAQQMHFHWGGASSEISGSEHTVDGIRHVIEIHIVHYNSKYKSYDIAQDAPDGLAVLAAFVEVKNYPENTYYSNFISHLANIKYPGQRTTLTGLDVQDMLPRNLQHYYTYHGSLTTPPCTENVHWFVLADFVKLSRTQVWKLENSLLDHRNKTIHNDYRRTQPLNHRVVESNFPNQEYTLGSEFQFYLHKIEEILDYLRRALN
Sequence of Carbonic anhydrase 1 (P00915 whole entry): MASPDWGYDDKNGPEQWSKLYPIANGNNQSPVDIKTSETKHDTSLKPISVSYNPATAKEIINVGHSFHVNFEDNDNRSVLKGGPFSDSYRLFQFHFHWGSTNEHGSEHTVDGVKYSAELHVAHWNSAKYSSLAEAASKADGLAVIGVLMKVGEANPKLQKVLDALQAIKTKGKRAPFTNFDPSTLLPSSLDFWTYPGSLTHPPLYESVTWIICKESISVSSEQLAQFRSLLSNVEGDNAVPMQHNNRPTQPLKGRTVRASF

Row | Structure (SMILES) | Ki (Carbonic anhydrase) [µM] | Ki (Carbonic anhydrase 6) [µM] | Ki (Carbonic anhydrase 1) [µM] | Ki (Carbonic anhydrase 2) [µM]
1 | O=C(O)c1cc(O)cc(O)c1 [3,5-DIHYDROXYBENZOIC ACID] | 2.13 |  |  | 
2 | O=C(O)c1cccc(O)c1 [3-HYDROXYBENZOIC ACID] | 98.3 | 3.17 |  | 
3 | Oc1ccccc1O [CATECHOL] | 14.8 |  |  | 
4 | O=C(O)c1cc(O)c(O)c(O)c1 [GALLIC ACID] | 4.13 |  |  | 
5 | Oc1ccc(O)cc1 [HYDROQUINONE] | 5.93 |  |  | 
6 | O=C(O)c1ccc(O)cc1 [PARABEN] | 8.46 |  |  | 
7 | Oc1ccccc1 [PHENOL] | 13.7 |  |  | 
8 | O=C(O)c1ccc(O)c(O)c1 [PROTOCATECHUIC ACID] | 3.21 | 4.72 |  | 
9 | Oc1cccc(O)c1O [PYROGALLOL] | 4.39 | 0.52 | 7.41 | 0.54
10 | Oc1cccc(O)c1 [RESORCINOL] | 6.42 |  |  | 
11 | O=C(O)c1ccccc1O [SALICYLIC ACID] | 324 |  |  | 
12 | O=C(OC[C@H]1O[C@@H](OC(=O)c2cc(O)c(O)c(OC(=O)c3cc(O)c(O)c(O)c3)c2)[C@H](OC(=O)c2cc(O)c(O)c(OC(=O)c3cc(O)c(O)c(O)c3)c2)[C@@H](OC(=O)c2cc(O)c(O)c(OC(=O)c3cc(O)c(O)c(O)c3)c2)[C@@H]1OC(=O)c1cc(O)c(O)c(OC(=O)c2cc(O)c(O)c(O)c2)c1)c1cc(O)c(O)c(OC(=O)c2cc(O)c(O)c(O)c2)c1 [TANNIC ACID] | 9.41 | 17.8 | 75.9 | 32.8
